The source of these data is article PMC2678990, “Stilbene glycosides are natural product inhibitors of FGF-2-induced angiogenesis” (BMC Cell Biology, 2009).

The subject of series [1] is HDMEC. Briefly: FGF-2-induced chemotaxis, Boyden chamber assay. In kind it is cell-based. As to conditions: Homo sapiens, 6 h, FGF-2 25 ng/ml. As for the experimental part:
(§1) The effect of compounds 1 and 2 on cell migration was examined in vitro using a modified Boyden chamber system with 8.0 μm pore polycarbonate filter inserts (TSL, UK). The filter was coated overnight with 0.1%w/v gelatine, and air-dried. Cells (1 × 10^5) were placed in the upper part of the filter and test compounds at different concentrations with and without growth factors were added to the lower part in SPM. Cells were incubated at 37°C for 6 h and the filter removed and the upper side containing non migrated cells wiped and rinsed. The filters were fixed (4% paraformaldehyde), and stained (Geimsa) and cell migration in duplicate wells was determined by counting cell numbers on the lower surface. Experiments were performed in triplicate and at least two times.

The test system of series [2] is HDMEC. The experiment in a line: EGF-induced proliferation. As to conditions: EGF 75 ng/ml, 72 h, NS = inhibition less than 50%. In kind it is cell-based, human. As for the experimental part:
(§2) Cells were seeded in triplicate at a concentration of 6.0 × 10^5/ml, in 2 ml of complete medium in 6-well plates. […] Growth factors, FGF-2 (25 ng/ml), EGF (75 ng/ml) and VEGF (10 ng/ml) and test compounds at different concentration were added and cells incubated for a further 72 h. Control wells were treated with 5 μl DMSO. Concentration ranges of test compounds and pre-incubation times were based on pilot studies. After 72 h, cells were washed in PBS, detached in 0.05%w/v trypsin in PBS, and counted on a Coulter counter (Coulter Electronics, Hialeah, FL) set to a threshold of 30 μm. Experiments were performed in triplicate and repeated at least twice.

The subject of series [3] is HDMEC. Briefly: VEGF-induced proliferation. In kind it is cell-based, human. As to conditions: 72 h, NS = inhibition less than 50%. How it is done: as §2
The test system of series [4] is BAEC. Briefly: FGF-2-induced chemotaxis, Boyden chamber assay. It counts as cell-based, bovine. As to conditions: Bos taurus, 6 h, FGF-2 25 ng/ml. How it is done:
as §1

Series [5] has as its system HDMEC. The experiment in a line: Toxicity: MTT and active caspase-3 assays. It counts as cell-based, human. How it is done:
Stilbene glycoside toxicity was determined using the MTT and active caspase-3 assays. BAECs or HDMECs (7.5 × 10^3) were seeded in a 96 well plate and incubated for 4 h to allow cell adhesion. The test compound or staurosporine (1 μM), an inducer of active caspase-3 and therefore of apoptosis was added to the wells. Control cells were treated with PBS and the plate was incubated at room temperature for 72 hours. MTT reagent (10 μl) was added followed by incubation at room temperature for 2–4 h. When a purple precipitate was visible, detergent reagent (100 μl) was added to the plates and incubated at room temperature for 2 h in the dark. Absorbance was measured at 570 nm using a microplate reader.
In the apoptosis assay, HDMECs or BAEC (4 × 10^4/ml) in complete medium were added to the chambers slide and allowed to adhere for 24 h. The test compound (X μM) or staurosporine (1 μM) were added to all wells except control (PBS) and incubated for 24 hours. Wells treated with staurosporine were immediately washed (PBS) and fixed (4% paraformaldehyde) when cell morphology became round (2–4 h). After washing and fixing, cells were permeablized (0.1% Triton X-100; 10 min), washed (× 5~5 min each), air dried and blocked with 1% BSA in 1:50 TBS-Tween for 1 h at room temperature. Cells were incubated with goat anti-active caspase-3 (R&D system, UK; 1% BSA in TBS-Tween) for 1 h. […]

The test system of series [6] is VEGF receptor. Briefly: ELISA binding assay of VEGF to soluble receptor. As to conditions: results not shown. As for the experimental part:
(§3) Competition between growth factors, their cell surface receptors and test compounds was assessed in an ELISA assay as described by. A 96-well plate was coated overnight with 2 μg/ml of the soluble receptors (FGFR-1 or -2 and VEGFR-1 or -2) and blocked with 1% BSA in PBS containing 0.05% Tween-20. The test compound and FGF-2 or VEGF were pre-mixed for 2 h and added to the plate and incubated for 2 h. The plate was washed (× 3 with PBS-Tween-20) and incubated with anti-FGF-2 IgG (1:500 in PBS-Tween-20) or anti-VEGF IgG (!:250 in PBS-Tween-20) for 45 min, washed and incubated with horseradish peroxidase conjugated goat anti-IgG (Santa Cruz, 1:1000) for a further 45 min. After washing (× 3), ABTS peroxidase substrate was added and the absorbance read at 405 nm. IC50 values were calculated from the data using the EZ-Fit enzyme kinetic software (Perella Scientific Inc., Amherst, USA).

Series [7] deals with chick chorioallantoic membrane. The experiment in a line: Chick chorioallantoic membrane (CAM) assay. In kind it is in vivo. How it is done: The angiogenic activity of test compounds was determined using the semi-quantitative chick chorioallantoic assay (CAM) as described previously. To expose the CAM a window was created in the shells of 4 day-old chicken eggs. […] […] This approach enabled calculation of an accumulated response in each group. To photograph the membrane, 2 cm^3 of a 50% emulsion of aqueous paraffin oil containing 2% Tween-80 was injected at the site of application and photographed using a Leitz dissecting microscope. Each experiment was performed five times and statistical significance was determined by the Mann-Whitney U test and the data is expressed as a median value (m).

In series [8] the test system is T1, FGFR-2 (Homo sapiens).
T1 construct: coated overnight with 2 μg/ml of the soluble receptors (FGFR-1 or -2 and VEGFR-1 or -2); purchased Santa Cruz Biotechnology (receptor); R&D Systems (FGF-2)
The experiment in a line: ELISA binding assay of FGF-2 to soluble receptor. Conditions: added together with FGF-2, no pre-incubation. As for the experimental part:
(§4) Figure 8 The effect of increasing concentrations of compound 1 on FGF-2 binding to FGFR-1 and -2. The soluble receptor was coated onto the wells of a 96-well plate and blocked with 1% BSA. […] After 2 h the plate was washed and incubated with antibodies to the growth factor, then peroxidase-conjugated IgG for 45 min. Peroxidase substrate was added and the absorbance read at 405 nm (se below for detail).
as §3, with “The test compound and FGF-2 or VEGF were pre-mixed for 2 h and added to the plate and incubated for 2 h.” left out

Series [9] has as its system T2, FGFR-1 (Homo sapiens).
T2 construct: coated overnight with 2 μg/ml of the soluble receptors (FGFR-1 or -2 and VEGFR-1 or -2); purchased Santa Cruz Biotechnology (receptor); R&D Systems (FGF-2)
Briefly: ELISA binding assay of FGF-2 to soluble receptor. Conditions: added together with FGF-2, no pre-incubation. How it is done: as §4
as §3, with “The test compound and FGF-2 or VEGF were pre-mixed for 2 h and added to the plate and incubated for 2 h.” left out

T1 sequence (P09038 143-288): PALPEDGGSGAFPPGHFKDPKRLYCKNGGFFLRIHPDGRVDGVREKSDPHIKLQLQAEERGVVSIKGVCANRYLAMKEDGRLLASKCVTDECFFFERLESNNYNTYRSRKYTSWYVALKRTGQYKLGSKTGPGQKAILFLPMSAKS
T2 sequence (P09038 143-288): as above

Take `COc1cc(C=Cc2ccc(O)cc2)cc(OC2OC(COC3OC(C)C(O)C(O)C3O)C(O)C(O)C2OC2OC(C)C(O)C(O)C2O)c1` (stereo not shown) [Compound 1]: the IC50 in series [1] was 21.5 ± 0.6 µM; in [2] (Homo sapiens), greater than 71.5 µM; in [3] (Homo sapiens) it was greater than 71.5 µM; in series [4] it was 30.1 ± 0.85 µM. In [2], the “EGF-induced proliferation, IC50” value is “no significant inhibitory effect”. Further, the “VEGF-induced proliferation, IC50” value in [3] was “no significant inhibitory effect”. Also, the Cytotoxic effect entry in series [5] is listed as “no significant cytotoxic effect”. Further, in series [6], the “Effect on binding to the VEGF receptor” value is reported as “did not bind”. Moreover, the “Inflammatory or angiogenic response of compound alone” value in series [7] (10 μg compound alone, without FGF-2) is “no inflammatory or angiogenic response”. Moreover, in series [7] (10 μg compound with FGF-2, 6 days exposure, listed as I), the “In vivo CAM assay, inhibition of FGF-2-induced angiogenesis” value is “complete inhibition”. In [7] (10 μg compound with FGF-2, scale 0 to 3 or greater), the “Degree of angiogenesis (m), median score” value came to 0. Besides, in [8], the “Effect on FGF-2 binding to FGFR-2 when added with FGF-2” value is listed as “no significant inhibitory effect”. Further, the “Effect on FGF-2 binding to FGFR-1 when added with FGF-2” value in series [9] was “no significant inhibitory effect”.
